Assay results: patent US12275731B2, “Azaindole inhibitors of wild-type and mutant forms of LRRK2” (DANA-FARBER CANCER INSTITUTE, INC., priority 2018, dated 2025)

Tests used:
Assay in all cases: KinomeScan profiling
Assay type in all cases: binding
[1] = molecular target: T1, KIT(D816H) (Homo sapiens, UniProt P10721, D816H); conditions: read-out: % control
T1 construct: purchased KinomeScan®
Summary of the method: (§1)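 Test agents were profiled at a single concentration of 1 μM (DMSO vehicle) on a near-complete set of 468 kinases. Signal is reported relative to vehicle (100%) and a fully displacing control (0%).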

[2] = molecular target: T2, PIKFYVE (Homo sapiens, UniProt Q9Y2I7); conditions: read-out: % control
T2 construct: purchased KinomeScan® (panel service)
Summary of the method: as §1

[3] = molecular target: T3, PRKCI (Homo sapiens, UniProt P41743); conditions: read-out: % control
T3 sequence (P41743 1-596): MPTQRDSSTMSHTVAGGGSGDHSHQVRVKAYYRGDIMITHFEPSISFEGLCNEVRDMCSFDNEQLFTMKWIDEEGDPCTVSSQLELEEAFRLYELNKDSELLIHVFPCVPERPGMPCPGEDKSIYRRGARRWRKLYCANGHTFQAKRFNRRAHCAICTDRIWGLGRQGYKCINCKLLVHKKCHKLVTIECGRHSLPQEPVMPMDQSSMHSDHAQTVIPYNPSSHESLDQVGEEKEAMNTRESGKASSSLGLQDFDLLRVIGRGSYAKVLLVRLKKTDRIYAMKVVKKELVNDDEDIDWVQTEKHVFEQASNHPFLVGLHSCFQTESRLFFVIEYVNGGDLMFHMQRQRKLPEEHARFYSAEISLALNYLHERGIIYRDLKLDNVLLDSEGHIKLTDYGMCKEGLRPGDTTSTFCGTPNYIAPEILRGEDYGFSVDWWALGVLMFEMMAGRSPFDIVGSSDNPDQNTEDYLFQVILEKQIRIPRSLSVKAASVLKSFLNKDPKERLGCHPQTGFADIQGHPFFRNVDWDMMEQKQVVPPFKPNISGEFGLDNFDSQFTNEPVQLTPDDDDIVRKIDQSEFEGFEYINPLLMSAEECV
Summary of the method: as §1

[4] = molecular target: T4, PDPK1 (Homo sapiens, UniProt O15530); conditions: PDPK1, 1 μM; read-out: % control
T4 sequence (O15530 1-556): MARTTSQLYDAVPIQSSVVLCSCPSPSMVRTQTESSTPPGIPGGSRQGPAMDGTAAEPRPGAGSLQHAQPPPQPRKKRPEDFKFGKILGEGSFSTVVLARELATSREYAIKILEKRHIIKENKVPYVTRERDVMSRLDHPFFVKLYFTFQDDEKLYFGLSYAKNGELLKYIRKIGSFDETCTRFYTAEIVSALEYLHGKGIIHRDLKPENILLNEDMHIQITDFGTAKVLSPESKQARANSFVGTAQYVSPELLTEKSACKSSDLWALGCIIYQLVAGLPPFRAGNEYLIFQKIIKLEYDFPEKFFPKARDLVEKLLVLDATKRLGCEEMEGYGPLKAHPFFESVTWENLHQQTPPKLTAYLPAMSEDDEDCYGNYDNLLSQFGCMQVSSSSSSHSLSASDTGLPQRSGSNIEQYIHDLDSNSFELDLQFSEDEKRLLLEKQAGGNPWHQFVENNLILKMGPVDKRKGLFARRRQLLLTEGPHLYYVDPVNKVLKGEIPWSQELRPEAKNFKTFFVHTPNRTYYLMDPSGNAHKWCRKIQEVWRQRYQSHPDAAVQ
Summary of the method: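 The panel spans 468 kinases, and each inventive compound was applied at 1 μM from DMSO. Lower % control means stronger binding; the activity cut-off is set at less than 35%.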

[5] = molecular target: CSNK1A1 (Homo sapiens, UniProt P48729); conditions: CSNK1A1, 1 μM; read-out: % control
Summary of the method: as §1

[6] = molecular target: MET (Homo sapiens, UniProt P08581); conditions: read-out: % control
Summary of the method: as §1

[7] = molecular target: PLK2 (Homo sapiens, UniProt Q9NYY3); conditions: PLK2, 1 μM; read-out: % control
Summary of the method: as §1

[8] = molecular target: T5, EPHB3 (Homo sapiens, UniProt P54753); conditions: EPHB3, 1 μM; read-out: % control
T5 sequence (P54753 34-998): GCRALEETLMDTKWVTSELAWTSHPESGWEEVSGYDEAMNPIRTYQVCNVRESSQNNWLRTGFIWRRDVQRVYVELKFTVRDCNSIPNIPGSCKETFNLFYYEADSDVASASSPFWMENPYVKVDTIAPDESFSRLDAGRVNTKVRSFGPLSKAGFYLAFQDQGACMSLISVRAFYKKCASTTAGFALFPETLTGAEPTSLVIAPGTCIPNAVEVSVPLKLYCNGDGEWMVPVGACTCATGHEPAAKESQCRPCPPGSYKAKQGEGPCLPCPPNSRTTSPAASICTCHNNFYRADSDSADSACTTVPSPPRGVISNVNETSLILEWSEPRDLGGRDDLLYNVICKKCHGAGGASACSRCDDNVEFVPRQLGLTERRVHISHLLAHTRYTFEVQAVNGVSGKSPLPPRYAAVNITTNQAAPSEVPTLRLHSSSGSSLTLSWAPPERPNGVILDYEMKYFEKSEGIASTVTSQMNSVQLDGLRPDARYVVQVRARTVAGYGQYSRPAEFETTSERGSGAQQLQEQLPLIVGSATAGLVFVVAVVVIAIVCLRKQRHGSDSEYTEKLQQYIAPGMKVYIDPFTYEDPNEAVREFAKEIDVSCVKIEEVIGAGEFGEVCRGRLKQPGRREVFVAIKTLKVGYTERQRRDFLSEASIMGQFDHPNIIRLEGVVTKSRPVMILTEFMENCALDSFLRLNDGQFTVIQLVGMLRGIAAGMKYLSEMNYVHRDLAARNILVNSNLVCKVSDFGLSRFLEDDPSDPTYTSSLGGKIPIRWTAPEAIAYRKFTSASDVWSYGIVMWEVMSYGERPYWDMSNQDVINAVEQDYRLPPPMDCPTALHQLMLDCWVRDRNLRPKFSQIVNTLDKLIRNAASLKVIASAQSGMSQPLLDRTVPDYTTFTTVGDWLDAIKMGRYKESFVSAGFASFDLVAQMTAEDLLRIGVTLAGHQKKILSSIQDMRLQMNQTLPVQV
Summary of the method: as §1

[9] = molecular target: PDGFRA (Homo sapiens, UniProt P16234); conditions: read-out: % control
Summary of the method: as §1

CSNK1A1, sequence (P48729 whole entry): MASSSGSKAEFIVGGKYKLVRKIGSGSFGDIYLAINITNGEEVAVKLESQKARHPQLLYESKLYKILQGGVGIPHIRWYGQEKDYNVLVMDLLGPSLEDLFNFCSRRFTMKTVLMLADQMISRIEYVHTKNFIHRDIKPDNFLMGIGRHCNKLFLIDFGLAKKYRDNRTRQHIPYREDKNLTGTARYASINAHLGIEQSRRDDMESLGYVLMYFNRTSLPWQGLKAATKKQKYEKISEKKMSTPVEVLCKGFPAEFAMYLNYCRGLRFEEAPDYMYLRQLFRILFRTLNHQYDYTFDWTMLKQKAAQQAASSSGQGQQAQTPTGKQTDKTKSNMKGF
PLK2, sequence (Q9NYY3 whole entry): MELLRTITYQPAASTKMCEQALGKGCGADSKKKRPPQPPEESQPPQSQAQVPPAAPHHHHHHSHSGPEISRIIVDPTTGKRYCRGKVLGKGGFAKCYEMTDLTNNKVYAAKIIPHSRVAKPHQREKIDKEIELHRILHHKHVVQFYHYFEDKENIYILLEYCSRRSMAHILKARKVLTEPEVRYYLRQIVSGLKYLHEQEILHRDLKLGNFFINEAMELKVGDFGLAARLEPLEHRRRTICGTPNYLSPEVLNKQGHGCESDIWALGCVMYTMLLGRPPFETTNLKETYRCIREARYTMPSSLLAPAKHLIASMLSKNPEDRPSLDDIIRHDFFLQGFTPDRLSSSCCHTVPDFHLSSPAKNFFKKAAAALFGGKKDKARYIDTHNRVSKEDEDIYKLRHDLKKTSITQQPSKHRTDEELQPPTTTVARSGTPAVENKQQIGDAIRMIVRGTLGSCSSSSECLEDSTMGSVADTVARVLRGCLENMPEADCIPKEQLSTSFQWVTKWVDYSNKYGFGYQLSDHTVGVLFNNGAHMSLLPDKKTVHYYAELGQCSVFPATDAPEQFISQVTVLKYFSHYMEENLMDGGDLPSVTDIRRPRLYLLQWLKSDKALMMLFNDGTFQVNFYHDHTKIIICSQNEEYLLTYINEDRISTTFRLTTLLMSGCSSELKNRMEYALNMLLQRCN
T1 sequence (P10721 26-976 D816H): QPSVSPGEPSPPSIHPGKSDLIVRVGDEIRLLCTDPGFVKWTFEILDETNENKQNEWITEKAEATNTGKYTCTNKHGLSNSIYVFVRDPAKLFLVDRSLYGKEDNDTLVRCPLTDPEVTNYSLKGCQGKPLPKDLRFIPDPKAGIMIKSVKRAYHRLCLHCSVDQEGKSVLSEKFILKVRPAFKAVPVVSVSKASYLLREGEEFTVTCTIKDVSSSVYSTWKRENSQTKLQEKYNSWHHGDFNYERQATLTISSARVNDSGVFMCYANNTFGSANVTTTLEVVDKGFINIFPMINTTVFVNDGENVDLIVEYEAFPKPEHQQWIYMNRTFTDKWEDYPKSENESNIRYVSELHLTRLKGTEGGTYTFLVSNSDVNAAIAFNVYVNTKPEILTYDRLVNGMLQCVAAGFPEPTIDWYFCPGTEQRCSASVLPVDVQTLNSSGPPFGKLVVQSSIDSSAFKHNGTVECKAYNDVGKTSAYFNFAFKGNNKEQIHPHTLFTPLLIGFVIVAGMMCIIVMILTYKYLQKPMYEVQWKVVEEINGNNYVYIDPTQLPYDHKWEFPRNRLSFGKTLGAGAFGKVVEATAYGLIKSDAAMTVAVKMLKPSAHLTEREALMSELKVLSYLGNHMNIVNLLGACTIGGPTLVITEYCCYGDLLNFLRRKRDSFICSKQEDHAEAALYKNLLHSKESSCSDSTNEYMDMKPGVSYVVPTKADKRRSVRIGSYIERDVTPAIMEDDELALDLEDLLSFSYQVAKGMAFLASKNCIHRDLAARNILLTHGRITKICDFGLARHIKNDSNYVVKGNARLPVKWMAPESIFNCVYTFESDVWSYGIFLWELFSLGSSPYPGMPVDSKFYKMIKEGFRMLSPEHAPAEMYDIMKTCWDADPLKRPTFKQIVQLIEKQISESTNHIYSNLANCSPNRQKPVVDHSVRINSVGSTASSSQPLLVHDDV
T2 sequence (Q9Y2I7 whole entry): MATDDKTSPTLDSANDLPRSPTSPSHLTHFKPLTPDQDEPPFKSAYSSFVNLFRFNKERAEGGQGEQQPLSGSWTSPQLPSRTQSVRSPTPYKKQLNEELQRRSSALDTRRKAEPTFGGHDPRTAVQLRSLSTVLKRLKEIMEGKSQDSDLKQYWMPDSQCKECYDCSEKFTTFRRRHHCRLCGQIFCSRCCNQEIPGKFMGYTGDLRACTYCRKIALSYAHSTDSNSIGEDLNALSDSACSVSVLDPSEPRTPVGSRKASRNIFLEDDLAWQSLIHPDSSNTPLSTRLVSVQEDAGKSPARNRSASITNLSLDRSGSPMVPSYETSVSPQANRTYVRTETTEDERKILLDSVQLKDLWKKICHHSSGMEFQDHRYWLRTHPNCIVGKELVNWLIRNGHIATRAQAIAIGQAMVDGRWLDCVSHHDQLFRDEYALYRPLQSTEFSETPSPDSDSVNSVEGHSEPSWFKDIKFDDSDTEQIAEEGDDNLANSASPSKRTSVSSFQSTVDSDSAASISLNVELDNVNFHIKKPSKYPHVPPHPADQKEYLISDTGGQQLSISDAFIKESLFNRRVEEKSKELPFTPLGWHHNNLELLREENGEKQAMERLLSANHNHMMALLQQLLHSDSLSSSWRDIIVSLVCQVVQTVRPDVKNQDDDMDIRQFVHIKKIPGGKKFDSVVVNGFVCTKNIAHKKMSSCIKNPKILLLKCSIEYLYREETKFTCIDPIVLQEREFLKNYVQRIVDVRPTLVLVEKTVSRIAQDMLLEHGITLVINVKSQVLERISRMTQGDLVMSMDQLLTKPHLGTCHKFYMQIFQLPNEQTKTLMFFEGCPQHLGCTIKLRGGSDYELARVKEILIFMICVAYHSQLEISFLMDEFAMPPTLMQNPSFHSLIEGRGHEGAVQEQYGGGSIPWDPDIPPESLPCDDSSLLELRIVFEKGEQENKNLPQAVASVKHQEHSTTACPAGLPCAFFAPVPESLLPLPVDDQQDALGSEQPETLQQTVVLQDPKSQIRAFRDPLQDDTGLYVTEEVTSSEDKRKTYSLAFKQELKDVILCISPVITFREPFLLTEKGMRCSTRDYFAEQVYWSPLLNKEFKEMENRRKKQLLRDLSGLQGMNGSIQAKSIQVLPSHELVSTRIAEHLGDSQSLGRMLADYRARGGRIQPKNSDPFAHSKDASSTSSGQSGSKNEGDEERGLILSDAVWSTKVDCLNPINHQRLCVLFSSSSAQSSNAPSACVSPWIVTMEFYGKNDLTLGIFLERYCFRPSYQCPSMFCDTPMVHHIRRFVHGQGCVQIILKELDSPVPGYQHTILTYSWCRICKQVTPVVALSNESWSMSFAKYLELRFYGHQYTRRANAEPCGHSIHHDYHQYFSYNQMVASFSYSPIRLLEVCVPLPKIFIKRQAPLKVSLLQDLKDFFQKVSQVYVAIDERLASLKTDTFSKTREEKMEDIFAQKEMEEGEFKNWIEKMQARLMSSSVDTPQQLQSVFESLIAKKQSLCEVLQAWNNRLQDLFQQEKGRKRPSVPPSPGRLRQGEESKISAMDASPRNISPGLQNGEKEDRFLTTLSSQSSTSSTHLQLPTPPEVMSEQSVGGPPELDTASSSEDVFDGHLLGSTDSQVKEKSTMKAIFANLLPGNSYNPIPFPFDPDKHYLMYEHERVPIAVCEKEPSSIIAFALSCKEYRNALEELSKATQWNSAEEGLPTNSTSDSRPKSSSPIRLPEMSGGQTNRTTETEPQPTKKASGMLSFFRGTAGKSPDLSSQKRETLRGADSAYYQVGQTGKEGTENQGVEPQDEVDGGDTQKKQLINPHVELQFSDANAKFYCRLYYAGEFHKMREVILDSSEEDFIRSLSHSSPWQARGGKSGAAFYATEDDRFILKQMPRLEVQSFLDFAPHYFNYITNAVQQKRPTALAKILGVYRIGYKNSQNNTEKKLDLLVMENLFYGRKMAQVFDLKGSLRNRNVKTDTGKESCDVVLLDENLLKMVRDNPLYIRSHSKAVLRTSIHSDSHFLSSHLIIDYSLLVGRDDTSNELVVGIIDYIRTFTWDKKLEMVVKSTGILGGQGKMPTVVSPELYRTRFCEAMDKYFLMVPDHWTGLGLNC

SMILES | remaining binding at 1 µM [1] [%] | remaining binding at 1 µM [2] [%] | remaining binding at 1 µM [3] [%] | remaining binding at 1 µM [4] [%] | remaining binding at 1 µM [5] [%] | remaining binding at 1 µM [6] [%] | remaining binding at 1 µM [7] [%] | remaining binding at 1 µM [8] [%] | remaining binding at 1 µM [9] [%]
O=C(c1ccc(-c2cnc3[nH]cc(Cl)c3c2NC2CCCC2)cc1)N1CCC(N2CCOCC2)CC1 [Compound 101, (4-(3-chloro-4-(cyclopentylamino)-1H-pyrrolo[2,3-b]pyridin-5-yl)phenyl)(4-morpholinopiperidin-1-yl)methanone] | 92 | 98 | 100 | 94 | 89 | 16 | 100 | 79 | 92
CNc1c(-c2cnn([C@H]3CCN(C(C)=O)C[C@@H]3F)c2)cnc2[nH]cc(Cl)c12 [Compound 77, 1-((3S,4S)-4-(4-(3-chloro-4-(methylamino)-1H-pyrrolo[2,3-b]pyridin-5-yl)-1H-pyrazol-1-yl)-3-fluoropiperidin-1-yl)ethan-1-one] | 51 | 53 | 67 | 94 | 96 | 63 | 85 | 100 | 11
CNc1c(-c2ccc(C(=O)N3CCC(N4CCOCC4)CC3)cc2)cnc2[nH]cc(Cl)c12 [Compound 96, (4-(3-chloro-4-(methylamino)-1H-pyrrolo[2,3-b]pyridin-5-yl)phenyl)(4-morpholinopiperidin-1-yl)methanone] | 75 | 66 | 69 | 68 | 100 | 84 | 100 | 100 | 45
